Experiments:
Format in all cases: cell-based, Chinese hamster
[1] = test system: hFVII-expressing recombinant CHO cell line (HMF708); assay: Growth of hFVII-expressing cell line in production medium containing sodium butyrate (50 mL Erlenmeyer flasks), hFVII level by enzyme immunoassay; conditions: for FVII Level (% compared to control %): 30.0°C, day 4, supernatant
Experimental: (§1) The transformed cells of Example <2-1> were seeded at a density of 2×10^4 cells/well to 24-well plates. When the cells were grown to almost full confluence, serum-free CHO-A-SFM (Gibco, Cat. No. 05-5072EF) supplemented with 0.3 mM sodium butyrate (Sigma, Cat. No. B5887) was aliquoted in an amount of 200 μL/well, followed by incubation at 33° C. for 48 hours in a 5% CO2 incubator. The cell culture was transferred to 1.5 mL tubes and centrifuged. Expression levels of human factor VII in the supernatants were measured by taking measurements using an enzyme immunoassay kit (American Diagnostica, Cat. no. 877) according to the manufacturer's instruction. In detail, the cell culture and the standard substance enclosed in the kit were diluted to certain concentrations in physiological saline containing 0.05% Tween-20, and the dilutions were added in an amount of 100 μL to each well of the kit and allowed to react at room temperature for one hour on a plate shaker. After being washed four times with the washing solution enclosed in the kit, each of the wells was incubated at room temperature for one hour with 100 μL of an anti-human factor VII antibody on a plate shake. Each well was again washed four times with the washing solution and then incubated at room temperature for 30 min with 100 μL of an HRP (horseradish peroxidase)-conjugated antibody to the anti-human factor VII antibody. Subsequently, the wells were washed four times, and incubated with 100 μL of a substrate per well at room temperature. Five minutes later, 50 μL of a stopping solution was added to each well, followed by measuring absorbance at 450 nm. A standard curve and a function were obtained from the concentrations of the standard solution and the absorbance values obtained.
(§2) One vial (1×10^7 cells/mL) of the hFVII-expressing cell line which had been selected and assimilated to a suspension culture in Example <2-3> was taken from a liquid nitrogen tank and thawed as soon as possible in a 37° C. bath. After being washed once with a seed culturing medium (EX-CELL CHO medium (Sigma, Cat. No. 63225C) supplemented with 0.3 g/L glutamine), the cell culture was centrifuged at 90×g for 5 min and then inoculated into 50 mL of a seed culture medium in an Erlenmeyer flask (Corning, USA cat#431144). When grown for 1-2 days to a density of 10×10^5 cells/mL in a CO2 incubator (37° C., 5% CO2), the cells were centrifuged again in the same manner and then sub-cultured in 100 mL of a fresh seed culture medium in a new Erlenmeyer flask. The double-volume passage was continued until there was a sufficient number of cells.
The effect of sodium butyrate on the production of hFVII was examined. For this, first, the recombinant CHO cell line which was being cultured was inoculated at a density of 5.0×10^6 cells/mL into 50 mL of a production medium in each of three Erlenmeyer flasks which contained sodium butyrate (Cat. no. B5887, SIGMA, USA) at concentrations of 0.3, 1.0 and 1.5 mM, respectively. The cells grown in the presence of 0.3 mM sodium butyrate were used as a control for comparison. The cells were cultured at 30.0° C. for four days to produce hFVII. On day 4, the cell concentration and cellular activity of the cell cultures were examined. There were no changes in cell density and cellular activity among the cell cultures of different butyrate concentrations.
In addition, after centrifugation of the cell cultures on Day 4, the levels of hFVII in the supernatants were measured using an enzyme immunoassay method as in Example <2-2>.

[2] = test system: hFVII-expressing recombinant CHO cell line (HMF708); assay: Growth of the cell line in mass-scale production medium (4 L incubation tanks, continuous feed) containing sodium butyrate, hFVII level by enzyme immunoassay; conditions: for FVII Level (% compared to control %): 4 L, 30.0°C, 11-18 days
Experimental: as §1
as §2, with “assimilated to suspension culture” for “assimilated to a suspension culture”, “90×g for min and” for “90×g for 5 min and”, “of 10×10^5 cell/mL in a” for “of 10×10^5 cells/mL in a”, “continued until a sufficient” for “continued until there was a sufficient”, “number of cells were achieved.” for “number of cells.”
The effect of sodium butyrate on the production of hFVII was examined when the cells were cultured on mass scale. For this, first, the recombinant CHO cell line which was being cultured was inoculated at a density of 1.2×10^7 cells/mL into 4 L of a production medium in each of incubation tanks which contained sodium butyrate (Cat. no. B5887, SIGMA, USA) at concentrations of 0.3, 1.0, 1.5 and 2.0 mM, respectively. The cells grown in the presence of 0.3 mM sodium butyrate were used as a control for comparison. To produce hVII, the cells were cultured at 30.0° C. for 11-18 days with the medium continuously fed at 0.5-1.0 VVD. The culturing was stopped when cellular activity was reduced to less than 80%. […]
In addition, after the cell cultures taken during the cultivation was centrifuged, the levels of hFVII in the supernatants were measured using an enzyme immunoassay method as in Example <2-2>.

[3] = test system: CHO/dhfr- cells transformed with pX0GC-FVII; assay: Selection of human factor VII-expressing cells in MTX selection medium, expression level by enzyme immunoassay; conditions: MTX concentration of 10 nM or higher
Experimental: as §1, with “After being washed four times with the washing solution enclosed in the kit, each of the wells was incubated at room temperature for one hour with 100 μL of an anti-human factor VII antibody on a plate shake. Each well was again washed four times with the washing solution and then incubated at room temperature for 30 min with 100 μL of an HRP (horseradish peroxidase)-conjugated antibody to the anti-human factor VII antibody. Subsequently, the wells were washed four times, and incubated with 100 μL of a substrate per well at room temperature.” left out, “obtained. […]” for “obtained.”

[4] = 0.3 mM sodium butyrate (control)
[5] = 1.0 mM sodium butyrate, day 4, control = 0.3 mM
[6] = 1.5 mM sodium butyrate, control = 0.3 mM
[7] = 1.5 mM sodium butyrate, day 4, control = 0.3 mM
[8] = day 4, among cultures with 0.3, 1.0 and 1.5 mM butyrate

| SMILES | FVII Level (% compared to control %) [1, 4] [%] | Final Cell Density (% compared to control) ([1]; 0.3 mM sodium butyrate (control), day 4) [%] | FVII Level (% compared to control %) ([1]; 1.0 mM sodium butyrate, control = 0.3 mM) [%] | Cellular Activity (% compared to control) [1, 5] [%] | Final Cell Density (% compared to control) [1, 5] [%] | FVII Level (% compared to control %) [1, 6] [%] | Cellular Activity (% compared to control) [1, 7] [%] | Final Cell Density (% compared to control) [1, 7] [%] | production of hFVII ([1]; 0.3, 1.0 and 1.5 mM sodium butyrate) | activity at 300 µM ([1]; Cricetulus griseus, CHO, 96 h, 0.3 mM sodium butyrate (control), day 4, read-out: Cellular Activity (% compared to control)) [%] | cell density [1, 8] | cellular activity [1, 8] | FVII Level (% compared to control %) [2, 4] [%] | FVII Level (% compared to control %) ([2]; 1 mM sodium butyrate, control = 0.3 mM) [%] | FVII Level (% compared to control %) [2, 6] [%] | FVII Level (% compared to control %) ([2]; 2.0 mM sodium butyrate, control = 0.3 mM) [%] | amounts of FVII produced ([2]; higher concentrations of sodium butyrate, in spite of reduced periods of time of production) | expression level of human factor VII [3] |
| --- | --- | --- | --- | --- | --- | --- | --- | --- | --- | --- | --- | --- | --- | --- | --- | --- | --- | --- |
| CCCC(=O)[O-].[Na+] [Sodium Butyrate, sodium butyrate] | 100.0 | 100.0 | 164.9 | 100.2 | 106.8 | 190.1 | 99.9 | 108.5 | increased in a sodium butyrate dose-dependent manner | 100 | no changes | no changes | 100.0 | 154.5 | 157.7 | 127.6 | higher amounts of FVII were produced | – |
| CN(Cc1cnc2nc(N)nc(N)c2n1)c1ccc(C(=O)N[C@@H](CCC(=O)O)C(=O)O)cc1 [MTX, Methotrexate] | – | – | – | – | – | – | – | – | – | – | – | – | – | – | – | – | – | not increased |

From patent US9243237B2, “Method for mass production of factor VII/VIIA” (HANMI SCIENCE CO., LTD, priority 2010, dated 2016)
